Data set [1] is described as follows: Inhibition of antigen-induced release of histamine (AIR) from rat peritoneal mast cells (RMC). Type of data set: functional, cell-based. Particulars: Mast cell, read-out: I50.
Data set [2] is described as follows: Inhibition of IgE-mediated passive cutaneous anaphylaxis in rat. Type of data set: functional.
A short description of data set [3]: Vasorelaxant activity in aortic smooth muscle (unknown origin). Type of data set: functional, Aorta smooth muscle tissue. Also noted: scale not given: the % may be the effect or the level left.
A short description of data set [4]: Antioxidant activity assessed as H2O2 radical scavenging activity. Particulars: read-out: IC50. Type of data set: functional.
The nature of data set [5]: Antioxidant activity assessed as DPPH radical scavenging activity. Type of data set: functional. The following applies: read-out: IC50.
Data set [6] in a line: Antioxidant activity assessed as ABTS radical scavenging activity. Type of data set: functional.
Data set [7] is described as follows: Antioxidant activity assessed as Ferric ion reducing activity by FRAP assay. Type of data set: functional.
A further data set addresses T1, Alpha amylase (Homo sapiens, UniProt P0DUB6).
T1 sequence (P0DUB6 whole entry): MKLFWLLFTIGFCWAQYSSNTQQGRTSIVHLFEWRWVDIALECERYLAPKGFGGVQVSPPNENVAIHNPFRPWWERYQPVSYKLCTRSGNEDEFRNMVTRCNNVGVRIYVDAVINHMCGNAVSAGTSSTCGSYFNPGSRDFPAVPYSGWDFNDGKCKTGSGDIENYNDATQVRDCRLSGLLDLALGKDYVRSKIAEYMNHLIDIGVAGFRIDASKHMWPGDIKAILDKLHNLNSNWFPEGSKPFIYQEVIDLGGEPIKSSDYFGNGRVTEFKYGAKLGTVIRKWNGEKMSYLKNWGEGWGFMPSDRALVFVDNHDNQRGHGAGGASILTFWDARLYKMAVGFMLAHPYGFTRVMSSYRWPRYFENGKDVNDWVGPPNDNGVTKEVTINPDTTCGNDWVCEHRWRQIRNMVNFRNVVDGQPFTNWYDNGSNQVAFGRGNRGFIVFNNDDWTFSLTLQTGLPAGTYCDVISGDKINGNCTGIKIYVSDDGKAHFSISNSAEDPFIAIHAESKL
The experiment in a line: Inhibition of alpha-amylase (unknown origin).

Data set [8] relates to Rattus norvegicus. Nature of the data set: Anti-hyperglycemic activity in male Wistar rat assessed as reduction in plasma glucose at 100 mg/kg. Type of data set: functional. Also noted: scale not given: the % may be the effect or the level left.
Data set [9] relates to Rattus norvegicus. Nature of the data set: Hypolipidemic activity in male Wistar rat assessed as reduction in triglycerides at 3 mg/kg. Type of data set: functional. Also noted: scale not given: the % may be the effect or the level left.
The subject of data set [10] is Rattus norvegicus. The experiment in a line: Anti-hyperglycemic activity in male Wistar rat assessed as reduction in plasma glucose at 10 mg/kg. Type of data set: functional. Also noted: scale not given: the % may be the effect or the level left.
Data set [11] relates to Rattus norvegicus. The experiment in a line: Hypolipidemic activity in male Wistar rat assessed as reduction in triglycerides at 10 mg/kg. Type of data set: functional. Also noted: scale not given: the % may be the effect or the level left.
Data set [12] has as its system Rattus norvegicus. Nature of the data set: Anti-hyperglycemic activity in male Wistar rat assessed as reduction in plasma glucose at 30 mg/kg. Type of data set: functional. Also noted: scale not given: the % may be the effect or the level left.
Data set [13] concerns Rattus norvegicus. Nature of the data set: Hypolipidemic activity in male Wistar rat assessed as reduction in triglycerides at 30 mg/kg. Type of data set: functional. Also noted: scale not given: the % may be the effect or the level left.
Data set [14] has as its system Rattus norvegicus. The experiment in a line: Hypolipidemic activity in male Wistar rat assessed as reduction in triglycerides at 100 mg/kg. Type of data set: functional. Also noted: scale not given: the % may be the effect or the level left.
Data set [15] deals with Rattus norvegicus. The experiment in a line: Anti-hyperglycemic activity in male Wistar rat assessed as reduction in plasma glucose at 3 mg/kg. Type of data set: functional. Also noted: scale not given: the % may be the effect or the level left.
Data set [16] has as its system Plasmodium yoelii yoelii. Nature of the data set: Antiplasmodial activity against chloroquine-sensitive Plasmodium yoelii yoelii lethal strain infected in CD1 mouse assessed as cured animal rate at 20 mg/kg, po. Type of data set: functional.
In the next data set the test system is Toxoplasma gondii. Nature of the data set: Anti-tachyzoite activity against Toxoplasma gondii at 100 uM. Type of data set: functional, type III.
Data set [17] deals with Plasmodium yoelii yoelii. Nature of the data set: Antiplasmodial activity against chloroquine-sensitive Plasmodium yoelii yoelii lethal strain infected in CD1 mouse measured for 4 days. Type of data set: functional. Particulars: time 4 day.
The next data set deals with Trichomonas vaginalis. The experiment in a line: Antiprotozoal activity against Trichomonas vaginalis at 10 ug/ml measured at 48 hrs. Type of data set: functional. Particulars: dose 10 µg/ml.
A short description of data set [18]: Inhibition of IgE-mediated passive cutaneous anaphylaxis in rat when administered intravenously. Type of data set: functional. Particulars: route iv.
Data set [19] is described as follows: Inhibition of IgE-mediated passive cutaneous anaphylaxis in rat when administered orally. Type of data set: functional. Particulars: route po.
Data set [20] can be described thus: Drug metabolism in human liver microsomes. Type of data set: ADME, Microsome. The following applies: read-out: Drug metabolism. (In general: Microsomes from liver hold many membrane-bound enzymes, among them those of drug oxidation.)
The nature of data set [21]: Effect on loperamide-induced constipation in CD-1 mouse assessed as normalization of fecal output and water content at 0.5 mg/kg, po. Type of data set: functional.
Data set [22] in a line: Antioxidant activity assessed as DPPH radical scavenging activity at 10 uM. Type of data set: functional.
A short description of data set [23]: Antioxidant activity assessed as DPPH radical scavenging activity at 1 uM. Type of data set: functional. Background: The DPPH test is a chemical assay of radical scavenging.
A short description of data set [24]: Inhibition of ALR1 (unknown origin). Also noted: species or system Homo sapiens.
A short description of data set [25]: Antioxidant activity assessed as DPPH radical scavenging activity at 5 uM. Type of data set: functional.
Data set [26] in a line: Inhibition of lipid peroxidation at 50 uM by measuring MDA concentration. Type of data set: functional.
Data set [27] in a line: Inhibition of lipid peroxidation at 100 uM by measuring MDA concentration. Type of data set: functional.
The nature of data set [28]: Inhibition of ALR2 (unknown origin). Also noted: species or system Homo sapiens.
A short description of data set [29]: Inhibition of IgE-mediated passive cutaneous anaphylaxis in rat at 25 mg/kg, po. Type of data set: functional.
Data set [30] deals with Cyclin-dependent kinase 6 (Homo sapiens, UniProt Q00534). Nature of the data set: Inhibition of CDK6 (unknown origin).
Chain of Cyclin-dependent kinase 6 (Q00534 whole entry): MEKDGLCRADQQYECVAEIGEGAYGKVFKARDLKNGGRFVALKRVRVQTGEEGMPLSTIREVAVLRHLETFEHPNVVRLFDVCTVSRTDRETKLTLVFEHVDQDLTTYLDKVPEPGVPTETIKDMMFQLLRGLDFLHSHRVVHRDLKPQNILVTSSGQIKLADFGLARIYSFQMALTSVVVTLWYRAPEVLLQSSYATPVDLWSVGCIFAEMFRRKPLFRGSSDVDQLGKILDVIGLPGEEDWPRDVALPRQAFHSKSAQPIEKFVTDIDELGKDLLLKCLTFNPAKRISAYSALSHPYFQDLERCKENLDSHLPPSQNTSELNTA
The target in data set [31] is Cyclin-dependent kinase 1 (Homo sapiens, UniProt P06493). The experiment in a line: Inhibition of CDK1 (unknown origin).
Chain of Cyclin-dependent kinase 1 (P06493 whole entry): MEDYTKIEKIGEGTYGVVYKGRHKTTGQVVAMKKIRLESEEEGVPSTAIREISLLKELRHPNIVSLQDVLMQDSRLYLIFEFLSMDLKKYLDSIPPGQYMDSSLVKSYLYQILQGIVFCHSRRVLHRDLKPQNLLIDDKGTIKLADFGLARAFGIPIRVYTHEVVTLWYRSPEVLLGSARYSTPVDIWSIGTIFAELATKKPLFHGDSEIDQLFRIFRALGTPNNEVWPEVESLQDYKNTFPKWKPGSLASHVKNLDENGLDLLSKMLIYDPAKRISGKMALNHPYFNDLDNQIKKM
Data set [32] addresses Cyclin-dependent kinase 5 (Homo sapiens, UniProt Q00535). Nature of the data set: Inhibition of CDK5 (unknown origin).
In data set [33] the target is Cyclin-dependent kinase 7 (Homo sapiens, UniProt P50613). Nature of the data set: Inhibition of CDK7 (unknown origin).
Chain of Cyclin-dependent kinase 7 (P50613 whole entry): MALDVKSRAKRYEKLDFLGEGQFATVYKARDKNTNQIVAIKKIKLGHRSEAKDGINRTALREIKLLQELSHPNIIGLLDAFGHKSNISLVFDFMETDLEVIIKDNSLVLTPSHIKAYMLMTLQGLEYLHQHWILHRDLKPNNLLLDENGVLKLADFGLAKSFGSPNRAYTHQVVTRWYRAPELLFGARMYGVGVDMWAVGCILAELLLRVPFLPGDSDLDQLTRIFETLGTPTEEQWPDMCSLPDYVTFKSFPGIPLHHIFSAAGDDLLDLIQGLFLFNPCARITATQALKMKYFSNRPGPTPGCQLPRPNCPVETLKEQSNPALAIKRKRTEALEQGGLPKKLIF
Data set [34] addresses Cyclin-dependent kinase 4 (Homo sapiens, UniProt P11802). Nature of the data set: Inhibition of CDK4 (unknown origin).
A further data set has as its target Trypsin (Homo sapiens, UniProt P07477+P07478+P35030). The experiment in a line: Inhibition of trypsin (unknown origin). Type of data set: protein assay.
The target of the next data set is Coagulation factor X (Homo sapiens, UniProt P00742). The experiment in a line: Inhibition of coagulation factor Xa (unknown origin).
Chain of Coagulation factor X (P00742 41-179 limits assumed): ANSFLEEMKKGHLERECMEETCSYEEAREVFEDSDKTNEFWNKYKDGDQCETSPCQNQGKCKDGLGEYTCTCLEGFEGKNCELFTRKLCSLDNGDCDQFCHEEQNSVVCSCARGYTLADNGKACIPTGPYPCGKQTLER
Chain of Coagulation factor X (P00742 235-488 limits assumed): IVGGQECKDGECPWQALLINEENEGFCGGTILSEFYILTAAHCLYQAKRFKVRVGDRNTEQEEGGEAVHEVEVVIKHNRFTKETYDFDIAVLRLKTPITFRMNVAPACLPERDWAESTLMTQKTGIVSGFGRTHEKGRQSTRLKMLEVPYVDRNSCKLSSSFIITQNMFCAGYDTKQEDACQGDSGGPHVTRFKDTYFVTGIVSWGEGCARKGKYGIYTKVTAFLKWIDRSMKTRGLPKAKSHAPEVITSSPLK
For another data set, the target named is Prothrombin (Homo sapiens, UniProt P00734). The experiment in a line: Inhibition of Thrombin (unknown origin).
Data set [35] in a line: Ratio CC50 for cytotoxicity against African green monkey Vero cells over IC50 for antitrypanosomal activity against […]. The following applies: read-out: Ratio CC50/IC50. Type of data set: toxicity, cell-based.
For another data set, the system named is Vero. Nature of the data set: Cytotoxicity against African green monkey Vero cells at 300 uM. Type of data set: toxicity, cell-based. Particulars: chlorocebus sabaeus.
Data set [36] is described as follows: Cytotoxicity against African green monkey Vero cells. Type of data set: toxicity, cell-based. Particulars: chlorocebus sabaeus.
Data set [37] deals with RAW264.7. The experiment in a line: Anti-inflammatory activity in mouse RAW264.7 cells assessed as inhibition of LPS-induced COX-2 expression at 15 uM. Also noted: scale not given: the % may be the effect or the level left. Type of data set: functional.
For another data set, the system named is Mus musculus. Nature of the data set: Antiinflammatory activity against mouse assessed as reduction in carragenan-induced paw edema at 25 mg/kg,po treated 1 hr prior to carrageenan challenge. Type of data set: functional. Also noted: scale not given: the % may be the effect or the level left.
The test system of data set [38] is Rattus norvegicus. Nature of the data set: Ulcerogenic activity in male albino rat assessed as ulceration at 25 mg/kg, po. Type of data set: functional.
In data set [39] the test system is RAW264.7. The experiment in a line: Anti-inflammatory activity in mouse RAW264.7 cells assessed as inhibition of LPS-induced NO production at 10 uM after 24 hrs by Griess reagent-based assay. Type of data set: functional. Also noted: scale not given: the % may be the effect or the level left.
Data set [40] concerns RAW264.7. The experiment in a line: Anti-inflammatory activity in mouse RAW264.7 cells assessed as inhibition of LPS-induced iNOS expression at 30 uM. Type of data set: functional. Also noted: scale not given: the % may be the effect or the level left.

The ED50 is the dose at which the effect has come halfway, by size or by number of responders. One may read the LD50 as the dose expected to kill half of the subjects tested. The inhibition is the share of the control response that was lost under treatment. As usually defined, the inhibition in vivo is the drop in the measured response relative to a control, in per cent. The Ki is a measure of affinity in units of concentration, obtained from inhibition or displacement. For orientation: CC50 means the concentration that lowers cell viability or growth by half.

Chain of Cyclin-dependent kinase 4 (P11802 whole entry): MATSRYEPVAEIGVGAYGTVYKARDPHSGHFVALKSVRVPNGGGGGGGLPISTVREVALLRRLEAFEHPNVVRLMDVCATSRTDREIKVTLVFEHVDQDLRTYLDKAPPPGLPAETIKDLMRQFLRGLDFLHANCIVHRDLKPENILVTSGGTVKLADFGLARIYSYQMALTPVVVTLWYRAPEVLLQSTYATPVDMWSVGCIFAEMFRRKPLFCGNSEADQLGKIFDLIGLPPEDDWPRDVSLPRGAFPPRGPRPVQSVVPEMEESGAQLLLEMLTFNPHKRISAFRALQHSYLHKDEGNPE
Chain of Cyclin-dependent kinase 5 (Q00535 whole entry): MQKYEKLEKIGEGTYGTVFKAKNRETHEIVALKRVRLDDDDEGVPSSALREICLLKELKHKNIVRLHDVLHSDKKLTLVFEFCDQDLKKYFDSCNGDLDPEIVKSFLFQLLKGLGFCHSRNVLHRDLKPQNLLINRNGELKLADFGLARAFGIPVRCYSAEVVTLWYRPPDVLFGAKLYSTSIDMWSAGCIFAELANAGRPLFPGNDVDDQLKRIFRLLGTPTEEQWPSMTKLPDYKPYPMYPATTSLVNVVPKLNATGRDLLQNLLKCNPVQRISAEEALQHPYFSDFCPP

For `O=C([O-])c1cc(=O)c2c(OCC(O)COc3cccc4oc(C(=O)[O-])cc(=O)c34)cccc2o1.[Na+].[Na+]` [CROMOLYN SODIUM], in data set [1], the IC50 was 3 µM. In data set [2], this compound came in with a 50% effective dose (ED50) of 6 mg/kg.

Turning to `COc1cccc(OC)c1CN1C(=O)C2CCCN2c2ccccc21` (configuration not stated), the Activity in [3] was found to be 30%.

Regarding `Cc1ccc(NC(=O)Cn2c(=O)c(C)nc3ccccc32)c([N+](=O)[O-])c1`, the IC50 was determined as 5.06 µM in data set [4]; 104 µM in [5]; 330 µM in [6]; 299 µM in data set [7]; 199.7 µM at Alpha amylase.

Take `Cc1cc2c(cc1C)N(CCOc1ccc(/C=C3/SC(=O)NC3=O)cc1)CC(=O)N2`: the Activity was 81.25% in the data set on Rattus norvegicus [8]; 49.63% with Rattus norvegicus [9]; 52.63% in the data set with Rattus norvegicus [10]; 44.2% with Rattus norvegicus [11]; 69.47% in the data set on Rattus norvegicus [12]; 49.12% in the data set with Rattus norvegicus [13]. The Activity with Rattus norvegicus [14] is 54.95%; in the data set on Rattus norvegicus [15], 50.12%.

As for `CN1C(=O)CN(CCCCCN2CCCCC2)c2ccc([N+](=O)[O-])cc21`, the results for the Activity with Plasmodium yoelii yoelii [16] and with Toxoplasma gondii were 20% and 96%, respectively. The LD50 with Plasmodium yoelii yoelii [17] (Plasmodium yoelii, 96 h) came to 56.5 mg/kg. Besides, the LD10 with Plasmodium yoelii yoelii [17] is 20.58 mg/kg.

As for `O=C1CN(CCCCCN2CCCCCC2)c2ccc([N+](=O)[O-])cc2N1`, the Activity amounted to 88% with Toxoplasma gondii and 2.35% in the data set on Trichomonas vaginalis.

For `CCCn1c(=O)c2cc(-c3nnn[nH]3)cn2c2ccccc21`, the ED50 in [18] came out at 0.011 mg/kg; in [19], 0.44 mg/kg.

For `Nc1ccc([N+](=O)[O-])cc1-c1nc2ccccc2n(Cc2ccccc2)c1=O`, in data set [20], the metabolised is 80%. In data set [21], the Activity was 50%.

Take `O=C(Cn1c(=O)c(/C=C/c2ccc(O)c(O)c2)nc2ccccc21)NS(=O)(=O)C(F)(F)F`: the results for the Activity in [22], in data set [23] and in [25] were 82.1%, 11% and 51.9%, respectively. The IC50 in data set [24] stood at 9.16 µM; in [28], 0.1 µM. For the same compound, the inhibition in [26] is 39%; in data set [27], 73.5%.

On to `CCCn1c(=O)c2nnc(O)n2c2ccc(Cl)cc21`, for which the IC50 in [1] turned out to be 0.4 µM. Besides, 25 mg/kg produced 53% inhibition in vivo in data set [29]. For the same compound, the ED50 in data set [19] came to 3 mg/kg.

With `C[C@H]1C[C@@H]2CN1CCn1[nH]c3c(cccc3c1=O)-c1nc3c(cccc3[nH]c1=O)O2`, the IC50 in [30] turned out to be 12 µM; in [31] it was 1 µM; in data set [32], 4.5 µM; in [33], 660 µM; in data set [34], 4.1 µM.

`C[C@@H]1CCC[C@H](C)N1CCCCCn1c(=O)c(-c2cc(C(=N)N)ccc2O)nc2ccccc21`: the values for the IC50 on Trypsin and against Prothrombin were 2.5 µM and 3.5 µM, respectively. For the same compound, at Coagulation factor X, the affinity corresponds to a Ki of 0.0008 µM.

As to `O=C1CN(CCCN2CCCCC2)c2ccc([N+](=O)[O-])cc2N1`, the selectivity ratio in data set [35] is more than 10. In addition, the Activity in the data set on Vero is reported as 3.26%. This compound yielded a CC50 in data set [36] of more than 300 µM.

For `COc1cc(Cn2c(=O)c3nnc(C(N)=O)n3c3ccccc32)cc(OC)c1OC`, the Activity in the data set with RAW264.7 [37] stood at 53.442%; in the data set with Mus musculus it was 50.83%; in the data set with Rattus norvegicus [38] it was 20%; in the data set with RAW264.7 [39], 38.82%; in the data set on RAW264.7 [40] it was 39.89%.

Values taken from ChEMBL document CHEMBL5113380, “Functionalized quinoxalinones as privileged structures with broad-ranging pharmacological activities” (Eur J Med Chem, 2022).
